Measured values taken from the supplement of paper PMC10307832.

Assays:
Experiment in all cases: relative viability (nuclei count vs DMSO), 5 days (fraction); higher = more cells survive
Sorafenib + Palbociclib = compound: CNC(=O)c1cc(Oc2ccc(NC(=O)Nc3ccc(Cl)c(C(F)(F)F)c3)cc2)ccn1 [Sorafenib] + CC(=O)c1c(C)c2cnc(Nc3ccc(N4CCNCC4)cn3)nc2n(C2CCCC2)c1=O [Palbociclib] (partner 0.5 µM)
Procedure, shortened: (§1)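 Relative viability is defined as nuclei in treated wells over nuclei in vehicle wells. Duplicate plates were run and medians reported. Lung cancer cell lines in 1536-well plates were dosed by pin tool one day after seeding, with one drug or with a fixed anchor-drug dose plus five library-drug doses (not always all listed) in √10 steps, and nuclei were counted after 5 days.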

Sorafenib + Bortezomib = compound: CNC(=O)c1cc(Oc2ccc(NC(=O)Nc3ccc(Cl)c(C(F)(F)F)c3)cc2)ccn1 [Sorafenib] + CC(C)C[C@H](NC(=O)[C@H](Cc1ccccc1)NC(=O)c1cnccn1)B(O)O [Bortezomib] (partner 0.002 µM)
Procedure, shortened: as §1

Sorafenib + Navitoclax = compound: CNC(=O)c1cc(Oc2ccc(NC(=O)Nc3ccc(Cl)c(C(F)(F)F)c3)cc2)ccn1 [Sorafenib] + CC1(C)CCC(c2ccc(Cl)cc2)=C(CN2CCN(c3ccc(C(=O)NS(=O)(=O)c4ccc(N[C@H](CCN5CCOCC5)CSc5ccccc5)c(S(=O)(=O)C(F)(F)F)c4)cc3)CC2)C1 [Navitoclax] (partner 0.5 µM)
Procedure, shortened: as §1

Sorafenib + OSI-027 = compound: CNC(=O)c1cc(Oc2ccc(NC(=O)Nc3ccc(Cl)c(C(F)(F)F)c3)cc2)ccn1 [Sorafenib] + COc1cccc2cc(-c3nc([C@H]4CC[C@H](C(=O)O)CC4)n4ncnc(N)c34)[nH]c12 [OSI-027] (partner 0.5 µM)
Procedure, shortened: as §1

Sorafenib + Decitabine = compound: CNC(=O)c1cc(Oc2ccc(NC(=O)Nc3ccc(Cl)c(C(F)(F)F)c3)cc2)ccn1 [Sorafenib] + Nc1ncn([C@H]2C[C@H](O)[C@@H](CO)O2)c(=O)n1 [Decitabine] (partner 2 µM)
Procedure, shortened: as §1

| Cell Line | relative viability (Sorafenib + Palbociclib; first compound 0.08 µM) | relative viability (Sorafenib + Palbociclib; first compound 0.253 µM) | relative viability (Sorafenib + Palbociclib; first compound 2.53 µM) | relative viability (Sorafenib + Palbociclib; first compound 8 µM) | relative viability (Sorafenib + Bortezomib; first compound 0.08 µM) | relative viability (Sorafenib + Bortezomib; first compound 0.253 µM) | relative viability (Sorafenib + Bortezomib; first compound 2.53 µM) | relative viability (Sorafenib + Bortezomib; first compound 8 µM) | relative viability (Sorafenib + Navitoclax; first compound 0.08 µM) | relative viability (Sorafenib + Navitoclax; first compound 0.253 µM) | relative viability (Sorafenib + Navitoclax; first compound 2.53 µM) | relative viability (Sorafenib + Navitoclax; first compound 8 µM) | relative viability (Sorafenib + OSI-027; first compound 0.08 µM) | relative viability (Sorafenib + OSI-027; first compound 0.253 µM) | relative viability (Sorafenib + OSI-027; first compound 2.53 µM) | relative viability (Sorafenib + OSI-027; first compound 8 µM) | relative viability (Sorafenib + Decitabine; first compound 0.08 µM) | relative viability (Sorafenib + Decitabine; first compound 0.253 µM) | relative viability (Sorafenib + Decitabine; first compound 2.53 µM) | relative viability (Sorafenib + Decitabine; first compound 8 µM) |
| --- | --- | --- | --- | --- | --- | --- | --- | --- | --- | --- | --- | --- | --- | --- | --- | --- | --- | --- | --- | --- |
| LOU-NH91 | 0.533 | 0.52 | 0.55 | 0.533 | 0.548 | 0.454 | 0.552 | 0.537 | 0.82 | 0.742 | 0.86 | 0.61 | 0.783 | 0.713 | 0.788 | 0.799 | 0.807 | 0.829 | 0.87 | 0.845 |
| LU99A | 0.431 | 0.445 | 0.39 | 0.393 | 1.21 | 1.12 | 1.06 | 0.714 | 0.811 | 0.669 | 0.72 | 0.579 | 0.299 | 0.27 | 0.299 | 0.272 | 0.86 | 0.91 |  | 0.606 |
| LXF-289 | 0.612 | 0.618 | 0.74 | 0.616 | 0.98 | 0.997 | 1.03 | 0.926 | 0.971 | 0.959 | 0.999 | 0.943 | 0.787 | 0.814 |  | 0.764 | 0.379 | 0.38 |  | 0.329 |
| NCI-H23 | 0.522 | 0.503 | 0.514 | 0.389 | 0.97 | 0.89 | 0.804 | 0.861 | 0.996 | 0.768 | 0.806 | 0.705 |  | 0.501 | 0.488 | 0.398 | 0.269 | 0.292 | 0.302 | 0.26 |
| NCI-H322M | 0.524 | 0.589 | 0.525 | 0.63 | 1.3 | 1.18 |  | 1.55 | 1.19 | 1.25 | 1.34 | 1.16 | 0.615 | 0.48 | 0.542 | 0.587 | 0.69 | 0.788 | 0.823 | 0.739 |
| NCI-H441 | 0.222 | 0.245 | 0.252 | 0.164 | 0.489 | 0.433 | 0.277 | 0.219 | 0.488 | 0.431 | 0.471 | 0.417 | 0.588 |  | 0.423 | 0.297 | 0.23 | 0.146 | 0.207 | 0.277 |
| NCI-H460 | 0.176 | 0.118 | 0.136 | 0.137 | 1.01 | 1.02 | 0.972 |  | 1.2 | 1.02 | 1.12 | 0.231 | 0.761 | 0.596 | 0.459 | 0.0191 | 0.472 | 0.447 | 0.457 | 0.357 |
| NCI-H520 | 0.192 | 0.208 | 0.225 | 0.172 | 0.828 | 0.665 | 0.599 | 0.232 | 1.21 | 1.08 |  | 0.358 | 0.352 | 0.254 | 0.246 | 0.246 |  | 0.421 | 0.446 | 0.299 |
| NCI-H647 | 0.373 | 0.316 | 0.284 | 0.082 | 1.17 | 0.829 | 0.745 | 0.39 | 1.2 | 1.09 | 0.97 | 0.538 | 0.62 | 0.634 | 0.506 | 0.427 | 0.4 | 0.316 | 0.355 | 0.184 |
| NCI-H727 | 0.688 | 0.616 | 0.681 | 0.569 | 0.775 | 0.618 | 0.699 | 0.516 | 0.604 | 0.632 | 0.675 | 0.369 | 0.688 | 0.542 | 0.619 | 0.508 | 0.988 | 0.947 | 0.805 | 0.781 |
| NCI-H838 | 0.25 | 0.223 | 0.286 | 0.158 | 0.875 |  | 1.15 | 0.651 | 1.23 | 1.26 | 1.29 |  | 0.52 | 0.438 | 0.615 | 0.539 | 0.507 | 0.454 | 0.429 | 0.373 |
| NCI-H1355 | 0.421 | 0.41 | 0.431 | 0.39 | 1.15 | 1.05 | 1.14 | 1.15 | 0.916 | 0.983 | 0.86 | 0.668 | 0.459 | 0.38 | 0.512 | 0.336 | 0.353 | 0.308 | 0.336 | 0.321 |
| NCI-H1437 | 0.324 | 0.256 | 0.304 | 0.246 | 0.629 | 0.513 | 0.59 |  | 1.05 | 1.03 | 0.91 | 0.438 | 0.949 | 0.676 | 0.8 | 0.558 | 0.536 | 0.524 | 0.626 | 0.393 |
| NCI-H1650 | 0.363 | 0.493 | 0.401 | 0.26 | 0.239 | 0.217 | 0.225 | 0.212 | 1.2 | 1.1 | 1.29 | 1.29 | 0.83 | 0.599 | 0.908 | 0.31 | 0.443 | 0.61 | 0.49 | 0.439 |
| NCI-H1651 | 0.556 | 0.52 | 0.533 | 0.516 | 0.995 | 0.855 | 0.92 | 0.801 | 1.04 | 0.985 | 1.04 | 0.472 | 0.777 | 0.687 | 0.655 | 0.622 | 0.658 | 0.564 | 0.577 | 0.501 |
| NCI-H1666 | 0.602 | 0.566 | 0.634 | 0.717 |  | 0.66 | 0.851 |  | 1.01 | 0.953 | 0.752 | 0.577 | 0.912 | 0.781 | 0.798 | 0.692 | 0.834 | 0.774 | 0.727 | 0.616 |
